Source: US9289383B2, “Method of reducing intraocular pressure in humans” (Inotek Pharmaceuticals Corporation, priority 2010, dated 2016)
Read-outs that look alike come from different tables or passages of the source.

Legend:
[1] = In-vitro cornea permeability study (vertical diffusion apparatus); assay type: in vitro ADME, rabbit; settings: for CPA levels detected on the other side of the cornea membrane (receiver chamber): compound applied to donor side of rabbit cornea membrane, GBR buffer pH 7.4, 37° C.; for cornea permeability: topical delivery to cornea
Method: The compounds (2a) and (2g) were prepared in powder form by Inotek Pharmaceuticals Corp. (Lexington, Mass.). Low-permeability control compound atenolol and all other chemicals were purchased from Sigma (St. Louis, Mo.). The buffer used in the permeability assessment was a glutathione-bicarbonated Ringer's (GBR) solution (110 mM NaCl, 5 mM KCl, 1 mM NaH2PO4, 30 mM NaHCO3, 1 mM CaCl2, 0.75 mM Mg Cl2, 5 mM D-glucose, and 0.3 mM reduced glutathione), pH 7.4, which was freshly prepared on the day of the experiment and oxygenated with O2/CO2 (95:5) to pH 7.4.
The compounds (2a) and (2g) were reconstituted in saline and diluted (10-fold) into the assay at a final concentration between 50 μM and 2.6 mM. Male Dutch-belted pigmented rabbits (1.5-2.5 kg body weight, 3-3.5 months old) were purchased from Covance Research Products Inc. (Denver, Pa.). The animal handling performed in this study conformed to the Guiding Principles in the Care and Use of Animals (DHEW Publication, NIH 80-23). The rabbits were euthanized by CO2 asphyxiation, and the heads were transported on ice to a testing facility, where dissection of the eyes was performed.
The corneal tissues were excised and mounted on a Harvard vertical diffusion apparatus as shown in FIG. 3 with a diffusion area of 0.64 cm2. Preheated (37° C.), pH 7.4. GBR buffer was added to the mucosal (1.5 mL) and the serosal (1.5 mL) chambers. The diffusion apparatus was maintained at 37° C. throughout the entire transport experiment. Oxygenation and agitation were achieved by bubbling O2/CO2 (95:5) through each chamber at a rate of 5-6 bubbles per second. After the 30-minute equilibration, blank GBR buffer in the mucosal (donor) chamber was withdrawn and replaced with GBR assay buffer containing the compound (2a) or the compound (2g). The transport experiments lasted 2 hours and were performed in duplicate. Every 60 minutes, 0.2-mL samples were collected from the serosal (receiver) chamber and replenished with 0.2-mL blank GBR buffer, except at the last time point; at the end of the experiment, samples were also collected from the mucosal (donor) chambers for mass balance determination.
After the transport experiment, tissue integrity (system suitability) was assessed by measuring the permeation of a low permeability control compound, atenolol, across the tissue. Donor chamber contents were replaced with GBR buffer containing 100μM atenolol, and receiver chambers were replaced with fresh blank GBR buffer. After 30 minutes of incubation, samples were collected from both chambers for analysis. The post-experimental system suitability assessment was considered acceptable if duplicate measurements yielded a mean apparent permeability (Papp) value for atenolol <1·10^−6 cm/s.
Compound A and compounds (2a) and (2g) and atenolol concentrations in the donor and receiver chambers were analyzed by LC-MS/MS methods. Apparent permeability (Papp) values were calculated using the following equation: Papp=(dCr/dt)·Vr/(A·C0)
Where, dCr /dt was the slope of the linear portion of the cumulative concentration in the receiver compartment over time in μM/sec, Vr was the volume of the receiver chamber in cm^3, A was the diffusion area in cm^2, and C0 was the measured dosing concentration in μM.
Recovery was calculated using the following equation: Recovery=100·([…])/(Vd·C0)
Where, Vr was the volume of the receiver compartment in cm^3, Vd was the volume of the donor compartment in cm^3, C0 was the dosing concentration in μM, Cr^final was the cumulative receiver concentration in μM and Cd^final was the donor concentration in μM at the end of the incubation.

[2] = In vivo study of CPA concentration in the anterior chamber after topical administration to the cornea; settings: Dutch Belted rabbits, topical to the cornea (FIG. 4)
[3] = system: intraocular pressure; settings: topical in DMSO, three mice, cited from earlier work
[4] = system: intraocular pressure; settings: CPA 165 μg; cited from earlier work
[5] = system: optic nerve head tissue blood flow; settings: 10 nmol, injected intravitreally, rabbits; cited from earlier work
[6] = Analysis of human plasma after topical administration of Compound A; assay type: in vivo; settings: human subject, topical to the cornea, LC/MS/MS
Method: After the administration of Compound A topically to a cornea of a human, at selected time points (e.g., Day 1: pre-dose, 5, 15, 25, 35. and 45 min and 1, 2, 4, 8 and 24 hours) samples of whole blood (10 mL) were collected for pharmacokinetic assessments using a vacutainer tube containing sodium heparin as an anticoagulant, via catheter, saline lock, or by venipuncture. The blood components were separated by centrifugation at 4° C. following standard clinical laboratory procedures for preparation of plasma from whole blood (e.g., 3000 rpm for approximately 10 min). For each sample, approximately 1 mL of plasma was stored at −20° C. or colder until analysis for Compound A and CPA concentration. Human plasma samples were analyzed for Compound A concentrations using a validated liquid chromatography/tandem mass spectrometry (LC/MS/MS) method with a lower limit of quantitation (LLOQ) of 10.0 pg/mL and a linear range from 10.0 to 2000 pg/mL. Plasma concentrations of (N(6)-cyclopentyladenosine, CPA) were also measured in some samples using a validated LC/MS/MS method with a lower limit of quantitation of 10.0 pg/mL and a linear range from 10.0 to 2000 pg/mL.

[7] = system: intraocular pressure; experiment: IOP of human subjects after topical administration of Compound A to the cornea; assay type: in vivo
Source text: As a result of this analysis, CPA has been identified as an active metabolite in clinical studies after the topical administration of Compound A to the cornea of human subjects.

| SMILES | CPA levels detected on the other side of the cornea membrane (receiver chamber) [1] | cornea permeability [1] | concentration of CPA in the anterior chamber over time [2] | change in IOP ([3]; CPA at 100 nM) [mm Hg] | change in IOP ([3]; CPA at 1 mM) [mm Hg] | effect on rabbit IOP [4] | optic nerve head tissue blood flow [5] | CPA in plasma after administration of Compound A [6] | IOP course after buildup of CPA in plasma [7] | transient elevation in IOP [7] |
| --- | --- | --- | --- | --- | --- | --- | --- | --- | --- | --- |
| OC[C@H]1O[C@@H](n2cnc3c(NC4CCCC4)ncnc32)[C@H](O)[C@@H]1O [CPA, N^6-cyclopentyladenosine] | much less than that detected when Compound A is topically applied to the cornea | does not have sufficient cornea permeability | build up in concentration of CPA in the anterior chamber over time | −6.8 | −1.0 | reduction of rabbit IOP | increased the optic nerve head tissue blood flow | – | – | – |
| CC(C)C(=O)OC[C@H]1O[C@@H](n2cnc3c(NC4CCCC4)ncnc32)[C@H](O)[C@@H]1O [Compound 2a, N^6-Cyclopentyl-5′-O-isobutyryl-adenosine] | significant levels of CPA were measureable | significant cornea permeability | – | – | – | – | – | – | – | – |
| CCCCCCCC(=O)OC[C@H]1O[C@@H](n2cnc3c(NC4CCCC4)ncnc32)[C@H](O)[C@@H]1O [Compound 2g, N^6-Cyclopentyl-5′-O-octanoyl-adenosine] | significant levels of CPA were measureable | significant cornea permeability | – | – | – | – | – | – | – | – |
| O=[N+]([O-])OC[C@H]1O[C@@H](n2cnc3c(NC4CCCC4)ncnc32)[C@H](O)[C@@H]1O [Compound A, ((2R,3S,4R,5R)-5-(6-(cyclopentylamino)-9H-purin-9-yl)-3,4-dihydroxytetrahydrofuran-2-yl)methyl nitrate] | significant levels of CPA on the other side of the cornea membrane | – | build up in concentration of CPA in the anterior chamber over time | – | – | – | – | detection of CPA in the plasma | continues to decline | no transient elevation in IOP is seen |
